In patent US7763615B2, “Ecteinascidin analogs for use as antitumour agents” (priority 2001, dated 2010):
Where two headings read alike, the source gives them in different places.

How the values were obtained:
A549 = assay: cells; assay type: cell-based; settings: A549, 48 hours exposure, SRB; for GI50: read-out: GI50; for CC50: read-out: LC50
How it was run: (§1)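 Absorbance at 490 nm of sulphorhodamine B bound by TCA-fixed cells gives the growth readout after 48 h continuous exposure to test samples (10 to 10^−8 μg/ml). Cells were seeded at 5×10^3 per well in RPMI 1640/10% FBS and allowed 18 h to attach first.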

DU145 = assay: cells; assay type: cell-based
How it was run: as §1

HT29 = assay: cells; assay type: cell-based
How it was run: as §1

IGROV-ET = assay: cells; assay type: cell-based
How it was run: as §1

IGROV = assay: cells; assay type: cell-based; settings: for GI50 / TGI: 48 hours exposure, SRB; for CC50: read-out: LC50, 48 hours exposure, SRB
How it was run: as §1

K562 = assay: cells; assay type: cell-based; settings: K562, 48 hours exposure, SRB; for CC50: read-out: LC50
How it was run: as §1

LNCAP = assay: cells; assay type: cell-based
How it was run: as §1

LOVO-DOX = assay: cells; assay type: cell-based
How it was run: as §1

LOVO = assay: cells; assay type: cell-based
How it was run: as §1

MEL-28 = assay: cells; assay type: cell-based; settings: MEL-28, 48 hours exposure, SRB; for CC50: read-out: LC50
How it was run: as §1

PANC-1 = assay: cells; assay type: cell-based; settings: PANC-1, 48 hours exposure, SRB; for CC50: read-out: LC50
How it was run: as §1

SK-BR3 = assay: cells; assay type: cell-based; settings: SK-BR3, 48 hours exposure, SRB; for CC50: read-out: LC50
How it was run: as §1

H-MEC-1 = assay: Inhibition of cells growth by colorimetric assay (SRB), H-MEC-1; assay type: cell-based
Text: (§2) The finality of these assays is to interrupt the growth of a “in vitro” tumor cell culture by means of a continued exhibition of the cells to the sample to be testing.
(§3) A colorimetric type of assay, using sulphorhodamine B (SRB) reaction has been adapted for a quantitative measurement of cell growth and viability [following the technique described by Philip Skehan, et al. (1990), New colorimetric cytotoxicity assay for anticancer drug screening, J. Natl. Cancer Inst., 82:1107-1112]
(§4) This form of the assay employs 96 well cell culture microplates of 9 mm diameter (Faircloth, 1988; Mosmann, 1983). Most of the cell lines are obtained from American Type Culture Collection (ATCC) derived from different human cancer types.
(§5) Cells are maintained in RPMI 1640 10% FBS, supplemented with 0.1 g/l penicillin and 0.1 g/l streptomycin sulphate and then incubated at 37° C., 5% CO2 and 98% humidity. For the experiments, cells were harvested from subconfluent cultures using trypsin and resuspended in fresh medium before plating.
(§6) Cells are seeded in 96 well microtiter plates, at 5×10^3 cells per well in aliquots of 195 μl medium, and they are allowed to attach to the plate surface by growing in drug free medium for 18 hours. Afterward, samples are added in aliquots of 5 μl in a ranging from 10 to 10^−8 μg/ml, dissolved in DMSO/EtOH/PBS (0.5:0.5:99). After 48 hours exposure, the antitumor effect are measured by the SRB methodology: cells are fixed by adding 50 μl of cold 50% (wt/vol) trichloroacetic acid (TCA) and incubating for 60 minutes at 4° C. Plates are washed with deionized water and dried. One hundred μl of SRB solution (0.4% wt/vol in 1% acetic acid) is added to each microtiter well and incubated for 10 minutes at room temperature. Unbound SRB is removed by washing with 1% acetic acid. Plates are air dried and bound stain is solubilized with Tris buffer. Optical densities are read on a automated spectrophotometric plate reader at a single wavelength of 490 nm.
(§7) The values for mean+/− SD of data from triplicate wells are calculated. Some parameters for cellular responses can be calculated: GI=growth inhibition, TGI=total growth inhibition (cytostatic effect) and LC=cell killing (cytotoxic effect).

SK-OV3 = assay: Inhibition of cells growth by colorimetric assay (SRB), SK-OV3; assay type: cell-based
Text: as §2, §3, §4, §5, §6, §7

[1] = tested on: AML-12, normal mouse liver cells; settings: 24 h
[2] = tested on: NRK-52E, normal rat kidney cells; settings: 24 h
Procedure: In order to assess the cytotoxicity of the drugs to normal cells, we used 96 well plates plated at a density of 5000 cells per well (except for the FDC-P1 which were plated at 12,000 cells per well) with normal cell lines (ATCC, Table 1) maintained as per the directions of the ATCC: AML-12, normal mouse liver cells; NRK-52E, normal rat kidney cells; L8, normal rat skeletal muscle cells; FDC-P1, normal mouse myelogeous stem cells; and H9c2 (2-1), normal rat cardiac muscle cells. The cells in each plate were permitted to settle overnight before adding the test drug.
To each well (100 μl medium) 10 μl of drug in media was added at varying concentrations (1×10-10-0.01 mg/ml final concentration) and further incubated overnight at 37° C. with 5% CO2. After 24 h the following assays were performed. All experiments were repeated at least 3 times and were assayed in duplicate.
MTS assay (CellTiter 96 aqueous) was performed according to the manufacturer's (Promega) directions (for all cell types). Cell viability (mitochondrial activity) is determined via enzymatic conversion of the formazan substrate.

[3] = tested on: L8, normal rat skeletal muscle cells; settings: 24 h
[4] = tested on: FDC-P1, normal mouse myelogeous stem cells; settings: 24 h
[5] = tested on: H9c2 (2-1), normal rat cardiac muscle cells; settings: 24 h
[6] = Homo sapiens, HT-29, 48 h, HT29, 48 hours exposure, SRB
[7] = IGROV-ET, 48 hours exposure, SRB
[8] = Homo sapiens, LNCaP, 48 h, 48 hours exposure, SRB
[9] = LOVO-DOX, 48 hours exposure, SRB
[10] = Homo sapiens, LoVo, 48 h, 48 hours exposure, SRB
[11] = H-MEC-1, 48 hours exposure, SRB

**Q.** With `COc1c(C)cc2c(c1O)[C@@H]1C3[C@@H]4SC[C@]5(NC(C)Cc6c5[nH]c5ccc(O)cc65)C(=O)COC[C@@H](c5c6c(c(C)c(OC(C)=O)c54)OCO6)N3[C@@H](O)[C@H](C2)N1C` (stereo partly drawn) [Compound 37] as the compound, how does the TGI (A549) read?
**A.** 2.17E−08 Molar

**Q.** What about the GI50 (A549; Homo sapiens, A549, 48 h) of the same compound?
**A.** 4.23 nM

**Q.** What about the CC50 (A549) of the same compound?
**A.** 138 nM

**Q.** And the GI50 (DU145; DU145, 48 hours exposure, SRB)?
**A.** 4.6 nM

**Q.** And the IC (TGI) (DU145; Homo sapiens, DU-145, 48 h, DU145, 48 hours exposure, SRB)?
**A.** 10.6 nM

**Q.** And the CC50 (DU145; Homo sapiens, DU-145, 48 h, read-out: LC50, DU145, 48 hours exposure, SRB)?
**A.** 12700 nM

**Q.** And the GI50 (HT29; [6])?
**A.** 3.71 nM

**Q.** What about the IC (TGI) (HT29; [6]) of the same compound?
**A.** 14 nM

**Q.** And the CC50 (HT29; Homo sapiens, HT-29, 48 h, read-out: LC50, HT29, 48 hours exposure, SRB)?
**A.** 12700 nM

**Q.** And the IC (TGI) (IGROV-ET; Homo sapiens, 48 h, IGROV-ET, 48 hours exposure, SRB)?
**A.** 119 nM

**Q.** And the CC50 (IGROV-ET; Homo sapiens, 48 h, read-out: LC50, IGROV-ET, 48 hours exposure, SRB)?
**A.** 12700 nM

**Q.** What about the GI50 (IGROV-ET; [7]) of the same compound?
**A.** 37.6 nM

**Q.** What about the GI50 (IGROV) of the same compound?
**A.** 2.82 nM

**Q.** And the TGI (IGROV)?
**A.** 7.06E−09 Molar

**Q.** What about the CC50 (IGROV) of the same compound?
**A.** 613 nM

**Q.** What about the GI50 (K562; Homo sapiens, K562, 48 h) of the same compound?
**A.** 0.492 nM

**Q.** And the IC (TGI) (K562; Homo sapiens, K562, 48 h)?
**A.** 1.36 nM

**Q.** What about the CC50 (K562) of the same compound?
**A.** 12.7 nM

**Q.** What about the GI50 (LNCAP; [8]) of the same compound?
**A.** 0.26 nM

**Q.** And the IC (TGI) (LNCAP; [8])?
**A.** 0.856 nM

**Q.** And the CC50 (LNCAP; Homo sapiens, LNCaP, 48 h, read-out: LC50, LNCAP, 48 hours exposure, SRB)?
**A.** 4.75 nM

**Q.** What about the GI50 (LOVO-DOX; Homo sapiens, 48 h, LOVO-DOX, 48 hours exposure, SRB) of the same compound?
**A.** 61.7 nM

**Q.** What about the CC50 (LOVO-DOX; Homo sapiens, 48 h, read-out: LC50, LOVO-DOX, 48 hours exposure, SRB) of the same compound?
**A.** 12700 nM

**Q.** And the TGI (LOVO-DOX; [9])?
**A.** 4.10E−07 Molar

**Q.** And the GI50 (LOVO; [10])?
**A.** 2.92 nM

**Q.** What about the IC (TGI) (LOVO; [10]) of the same compound?
**A.** 8.97 nM

**Q.** What about the CC50 (LOVO; Homo sapiens, LoVo, 48 h, read-out: LC50, LOVO, 48 hours exposure, SRB) of the same compound?
**A.** 12700 nM

**Q.** And the GI50 (MEL-28; Homo sapiens, SK-MEL-28, 48 h)?
**A.** 2.4 nM

**Q.** And the IC (TGI) (MEL-28; Homo sapiens, SK-MEL-28, 48 h)?
**A.** 6.82 nM

**Q.** What about the CC50 (MEL-28) of the same compound?
**A.** 33.5 nM

**Q.** What about the GI50 (PANC-1; Homo sapiens, PANC-1, 48 h) of the same compound?
**A.** 3.12 nM

**Q.** What about the IC (TGI) (PANC-1; Homo sapiens, PANC-1, 48 h) of the same compound?
**A.** 11.8 nM

**Q.** What about the CC50 (PANC-1) of the same compound?
**A.** 3020 nM

**Q.** What about the GI50 (SK-BR3) of the same compound?
**A.** 2.96 nM

**Q.** And the TGI (SK-BR3)?
**A.** 6.80E−09 Molar

**Q.** And the CC50 (SK-BR3)?
**A.** 141 nM

**Q.** And the TGI (H-MEC-1; [11])?
**A.** 3.58E−08 Molar

**Q.** What about the GI50 (H-MEC-1; Homo sapiens, HMEC-1, 48 h, H-MEC-1, 48 hours exposure, SRB) of the same compound?
**A.** 2.22 nM

**Q.** What about the CC50 (H-MEC-1; Homo sapiens, HMEC-1, 48 h, read-out: LC50, H-MEC-1, 48 hours exposure, SRB) of the same compound?
**A.** 12700 nM

**Q.** What about the GI50 (SK-OV3; Homo sapiens, SK-OV-3, 48 h, SK-OV3, 48 hours exposure, SRB) of the same compound?
**A.** 3.57 nM

**Q.** And the CC50 (SK-OV3; Homo sapiens, SK-OV-3, 48 h, read-out: LC50, SK-OV3, 48 hours exposure, SRB)?
**A.** 12700 nM

**Q.** What about the TGI (SK-OV3; SK-OV3, 48 hours exposure, SRB) of the same compound?
**A.** 1.07E−08 Molar

**Q.** And the Liver [1]?
**A.** 5.46E−09

**Q.** And the Kidney [2]?
**A.** 2.92E−08

**Q.** What about the Skeletal [3] of the same compound?
**A.** 2.22E−08

**Q.** What about the Myelo [4] of the same compound?
**A.** 4.59E−09

**Q.** What about the Heart [5] of the same compound?
**A.** 1.74E−08

**Q.** What does the source list for `COc1c(C)cc2c(c1O)[C@@H]1C3[C@@H]4SC[C@]5(C(=O)COC[C@@H](c6c7c(c(C)c(OC(C)=O)c64)OCO7)N3[C@@H](O)[C@H](C2)N1C)c1[nH]c2ccccc2c1CCN5C` (stereo partly drawn) [Compound 40]?
**A.** TGI (A549): 4.11E−09 Molar; GI50 (A549): 2.41 nM; CC50 (A549): 7.02 nM; GI50 (DU145; DU145, 48 hours exposure, SRB): 2.35 nM; TGI (DU145; DU145, 48 hours exposure, SRB): 6.41E−09 Molar; CC50 (DU145; read-out: LC50, DU145, 48 hours exposure, SRB): 2450 nM; GI50 (HT29; HT29, 48 hours exposure, SRB): 3.26 nM; TGI (HT29; HT29, 48 hours exposure, SRB): 1.06E−08 Molar; CC50 (HT29; read-out: LC50, HT29, 48 hours exposure, SRB): 13000 nM; GI50 (IGROV-ET; [7]): 2.42 nM; TGI (IGROV-ET; [7]): 8.66E−09 Molar; CC50 (IGROV-ET; read-out: LC50, IGROV-ET, 48 hours exposure, SRB): 4800 nM; GI50 (IGROV): 1.96 nM; TGI (IGROV): 4.17E−09 Molar; CC50 (IGROV): 8.86 nM; GI50 (K562): 0.843 nM; TGI (K562): 6.87E−09 Molar; CC50 (K562): 80 nM; GI50 (LNCAP; LNCAP, 48 hours exposure, SRB): 1.02 nM; TGI (LNCAP; LNCAP, 48 hours exposure, SRB): 2.48E−09 Molar; CC50 (LNCAP; read-out: LC50, LNCAP, 48 hours exposure, SRB): 5.88 nM; GI50 (LOVO-DOX; [9]): 30.4 nM; TGI (LOVO-DOX; [9]): 9.12E−08 Molar; CC50 (LOVO-DOX; read-out: LC50, LOVO-DOX, 48 hours exposure, SRB): 551 nM; GI50 (LOVO; LOVO, 48 hours exposure, SRB): 2.51 nM; TGI (LOVO; LOVO, 48 hours exposure, SRB): 5.98E−09 Molar; CC50 (LOVO; read-out: LC50, LOVO, 48 hours exposure, SRB): 23.8 nM; GI50 (MEL-28): 19.6 nM; TGI (MEL-28): 4.70E−08 Molar; CC50 (MEL-28): 112 nM; GI50 (PANC-1): 2.82 nM; TGI (PANC-1): 7.17E−09 Molar; CC50 (PANC-1): 128 nM; GI50 (SK-BR3): 2.56 nM; TGI (SK-BR3): 6.50E−09 Molar; CC50 (SK-BR3): 28 nM; GI50 (H-MEC-1; [11]): 2.45 nM; TGI (H-MEC-1; [11]): 5.31E−09 Molar; CC50 (H-MEC-1; read-out: LC50, H-MEC-1, 48 hours exposure, SRB): 11.5 nM; GI50 (SK-OV3; SK-OV3, 48 hours exposure, SRB): 2.9 nM; TGI (SK-OV3; SK-OV3, 48 hours exposure, SRB): 6.28E−09 Molar; CC50 (SK-OV3; read-out: LC50, SK-OV3, 48 hours exposure, SRB): 13 nM; Liver [1]: 3.86E−08; Kidney [2]: 2.95E−08; Skeletal [3]: 2.11E−07; Myelo [4]: 4.08E−08
